Data reported in patent publication US8609651B2, “Pharmaceutical compositions of benzodiazepines and method of use thereof” (Jazz Pharmaceuticals, Inc., priority 2006, dated 2013).
Converted amounts (≈) assume the structure as drawn. Like-named read-outs stand apart in the source and are kept apart here.

Legend:
[1] = Human safety and tolerability (side effects); assay type: in vivo
From the text: Somnolence was reported by 10 of 15 (approximately 67%) subjects after intranasal dosing and 13 of 15 (approximately 87%) subjects after oral dosing. Approximately 93% of the subjects reported somnolence or sedation ( 11/15 for somnolence and 3/15 for sedation) after intravenous dosing. Nasal discomfort was reported by 12 of 15 subjects (approximately 80%) after intranasal dosing.

[2] = Drug recovery, degradation and binding to nasal sheep mucosa; assay type: in vitro ADME; conditions: sheep nasal mucosa (excised tissue) in buffer, 37° C., read-out: % recovery in the presence of nasal sheep mucosa
Method: (i) Drug recovery, degradation and binding to nasal sheep mucosa: The effect of drug recovery, degradation and binding to sheep nasal mucosa was determined. Briefly, a known surface area (approx. 1 cm^2) of sheep nasal mucosa was added into a glass vial containing a known concentration (10 μg/mL) of each drug prepared in the receiver fluid (10% ethanol in pH 6 buffer). The content of the vial was allowed to equilibrate at 37° C. over a period of 48 h. At 24 h intervals, a sample was removed and assayed via HPLC. The percentage of drug recovered was calculated using Equation 4: % drug recovered=(drug concentration at t=Y/drug concentration at t=Z)×100 (Equation 4)
where, Y=specific time point at 37° C. (in the presence of nasal sheep mucosa); and Z=specific time point at 37° C. (in the absence of nasal sheep mucosa).
In addition to the stability against heat degradation, the effect of drug binding or degradation in the presence of nasal sheep mucosa was also determined (Table 6).

[3] = Solubility of clonazepam in binary solvent mixtures; conditions: triacetin/glycofurol 50:50 mixture, 25 °C, organic solvent or mixture, thermodynamic from solid
Method: Further, the solubility of clonazepam in binary mixtures of Transcutol® (TC), triacetin (TA), glycofurol (GF) and propylene glycol (PG) was evaluated. Solubility limits of clonazepam were determined for the following formulations:
Excess drug (50 mg) was capped with about 500 μL of the solvent matrix in a 1.5 mL microfuge tube and the solution was mixed on a vortex shaker for several minutes. Thereafter, the solution was placed in an ultrasonic bath at 25° C. for 45 minutes. The temperature was regulated with a thermometer and controlled by adding ice into the bath. After 15 minutes of standing, the solutions were centrifuged at 3,000×g for 30 minutes. Solutions were then stored for 16 hours at 25° C. in an ICH cabinet protected from light.

[4] = Psychomotor, cognitive and subjective tests in volunteers; assay type: in vivo; conditions: human
[5] = Solubilities of clonazepam in water-containing solvents; assay type: physicochemical; conditions: 25 °C
Method: The vials were stored at 25° C. for approximately 1 day. Prior to sampling, the vials were centrifuged at 5000 rpm for 2 minutes at 23° C. The results are shown below; neat solvent solubilities from Example 11 are included for reference. Increased water content decreases solubility substantially.

[6] = Solubility of clonazepam in neat solvents
Method: The solubility of clonazepam in a number of neat solvents was determined using standard methods.

[7] = Solubility of benzodiazepines in DEGEE (Transcutol) at 25° C. and −16° C.; conditions: organic solvent or mixture, thermodynamic from solid
Method: The solubilities of several other benzodiazepines were measured in DEGEE (diethylene glycol monoethyl ether, transcutol) by the techniques of Example 1. Initially, 10 mg of the drug was loaded in the glass vial and 130-μL of DEGEE was added, and the samples were sonicated for 10 minutes. […] Samples were stored at −16° C. and 25° C. overnight, and centrifuged (5000 rpm, 2 minutes, −10° C. and 23° C. for the −16° C. and 25° C. samples, respectively). […] Clonazepam was measured by UV at 350 nm; all others at 300 nm.

[8] = in vivo; cited from earlier work
[9] = Saturated solubility in receiver fluid systems (HPLC); conditions: 37 °C, thermodynamic from solid
Method: Following the stability studies, a suitable receiver fluid was developed in order to ensure that sink conditions for tested drug were such that the drug release was limited by the solubility of the drug in the receiver fluid. […] Briefly, drug was saturated into different receiver fluid systems by adding excess drug and allowed to stir with a magnetic flea over a period of 2 h at 37° C. Each saturated solution was then filtered using a 0.2 μm syringe filter and the resultant solution was assayed via HPLC.
Calibration curves for clonazepam were constructed between 0.2 to 10 μg/mL with appropriate replicates to ensure repeatability and linearity.
Standards were prepared in receiver fluid (10% ethanol in buffer 6). […] The filtration at room temperature was performed as quickly as possible to minimize any drug precipitation as the temperature dropped from 37° C. during filtration.

[10] = Solubilities of clonazepam in glycol ethers at 3 temperatures; conditions: neat solvent, organic solvent or mixture, thermodynamic from solid
Method: The vials were then centrifuged at −5° C. and 5° C. for the −15° C. and 5° C. samples, respectively, at 5000 rpm for 2 minutes.

## O=C1CN=C(c2ccccc2Cl)c2cc([N+](=O)[O-])ccc2N1 [Clonazepam, 5-(2-chlorophenyl)-1,3-dihydro-7-nitro-2H-1,4-benzodiazepin-2-one]
[1]; after intranasal dosing, 10 of 15
  subjects reporting somnolence: approximately 67%
[1]; after intranasal dosing, 12 of 15
  subjects reporting nasal discomfort: approximately 80%
[1]; after intravenous dosing
  subjects reporting somnolence or sedation: Approximately 93%
  subjects with sedation: 3/15
  subjects with somnolence: 11/15
[1]; after oral dosing, 13 of 15
  subjects reporting somnolence: approximately 87%
[1]; human
  changes in laboratory parameters: no clinically relevant changes
[1]; human, all routes
  Somnolence reported in the study: 75.6%
  nasal discomfort reported in the study: 26.7%
[2]; buffer pH 5 (10% ethanol)
  recovery at 24 h, 10 μg/mL: 97.8%
  recovery at 48 h, 10 μg/mL: 96.5%
[2]; buffer pH 6 (10% ethanol)
  recovery at 24 h, 10 μg/mL: 97.5%
  recovery at 48 h, 10 μg/mL: 97.1%
[2]; buffer pH 7 (10% ethanol)
  recovery at 24 h, 10 μg/mL: 99.3%
  recovery at 48 h, 10 μg/mL: 97.8%
[3]
  solubility at 16 h: ~36.4 mg/mL (≈ 115 mM)
[4]; intranasal
  time at which psychomotor and subjective effects were first apparent: approximately 30 minutes
[4]; intravenous
  time at which psychomotor and subjective effects were first apparent: approximately 30 minutes
[4]; oral
  time at which psychomotor and subjective effects were first apparent: approximately 2 hours
[5]; 1,2-dimethyxoethane / pH 6.8 buffered water mixture (20:80), pH 6.8, aqueous with cosolvent or surfactant or cyclodextrin, kinetic from dmso stock, 1,2-dimethyxoethane 20% solvent, 80% pH6.8 buffered water, 25° C.
  solubility: 180 µg/mL (≈ 0.57 mM)
[5]; 1,2-dimethyxoethane / pH 6.8 buffered water mixture (40:60), pH 6.8, aqueous with cosolvent or surfactant or cyclodextrin, kinetic from dmso stock, 1,2-dimethyxoethane 40% solvent, 60% pH6.8 buffered water, 25° C.
  solubility: 640 µg/mL (≈ 2.03 mM)
[5]; 1,2-dimethyxoethane / pH 6.8 buffered water mixture (60:40), pH 6.8, aqueous with cosolvent or surfactant or cyclodextrin, kinetic from dmso stock, 1,2-dimethyxoethane 60% solvent, 40% pH6.8 buffered water, 25° C.
  solubility: 9200 µg/mL (≈ 29.1 mM)
[5]; 1,2-dimethyxoethane / pH 6.8 buffered water mixture (80:20), pH 6.8, aqueous with cosolvent or surfactant or cyclodextrin, kinetic from dmso stock, 1,2-dimethyxoethane 80% solvent, 20% pH6.8 buffered water, 25° C.
  solubility: 29600 µg/mL (≈ 93.8 mM)
[5]; 1,2-dimethyxoethane, neat solvent, organic solvent or mixture, 1,2-dimethyxoethane 100% solvent, 0% water, 25° C. (neat, from Example 11)
  solubility: 39300 µg/mL (≈ 124 mM)
[5]; pH 6.8, aqueous with cosolvent or surfactant or cyclodextrin, kinetic from dmso stock, Di (ethylene glycol) methyl ether 20% solvent, 80% pH6.8 buffered water
  solubility: 260 µg/mL (≈ 0.824 mM)
[5]; pH 6.8, aqueous with cosolvent or surfactant or cyclodextrin, kinetic from dmso stock, Di (ethylene glycol) methyl ether 40% solvent, 60% pH6.8 buffered water
  solubility: 1000 µg/mL (≈ 3.17 mM)
[5]; pH 6.8, aqueous with cosolvent or surfactant or cyclodextrin, kinetic from dmso stock, Di (ethylene glycol) methyl ether 60% solvent, 40% pH6.8 buffered water
  solubility: 2800 µg/mL (≈ 8.87 mM)
[5]; pH 6.8, aqueous with cosolvent or surfactant or cyclodextrin, kinetic from dmso stock, Di (ethylene glycol) methyl ether 80% solvent, 20% pH6.8 buffered water
  solubility: 18900 µg/mL (≈ 59.9 mM)
[5]; pH 6.8, aqueous with cosolvent or surfactant or cyclodextrin, kinetic from dmso stock, Di (ethyleneglycol) diethyl ether 20% solvent, 80% pH6.8 buffered water
  solubility: 310 µg/mL (≈ 0.982 mM)
[5]; pH 6.8, aqueous with cosolvent or surfactant or cyclodextrin, kinetic from dmso stock, Di (ethyleneglycol) diethyl ether 40% solvent, 60% pH6.8 buffered water
  solubility: 1230 µg/mL (≈ 3.9 mM)
[5]; pH 6.8, aqueous with cosolvent or surfactant or cyclodextrin, kinetic from dmso stock, Di (ethyleneglycol) diethyl ether 60% solvent, 40% pH6.8 buffered water
  solubility: 8500 µg/mL (≈ 26.9 mM)
[5]; pH 6.8, aqueous with cosolvent or surfactant or cyclodextrin, kinetic from dmso stock, Di (ethyleneglycol) diethyl ether 80% solvent, 20% pH6.8 buffered water
  solubility: 38800 µg/mL (≈ 123 mM)
[5]; pH 6.8, aqueous with cosolvent or surfactant or cyclodextrin, kinetic from dmso stock, Diethylene glycol monoethyl ether 20% solvent, 80% pH6.8 buffered water
  solubility: 300 µg/mL (≈ 0.95 mM)
[5]; pH 6.8, aqueous with cosolvent or surfactant or cyclodextrin, kinetic from dmso stock, Diethylene glycol monoethyl ether 40% solvent, 60% pH6.8 buffered water
  solubility: 520 µg/mL (≈ 1.65 mM)
[5]; pH 6.8, aqueous with cosolvent or surfactant or cyclodextrin, kinetic from dmso stock, Diethylene glycol monoethyl ether 60% solvent, 40% pH6.8 buffered water
  solubility: 4500 µg/mL (≈ 14.3 mM)
[5]; pH 6.8, aqueous with cosolvent or surfactant or cyclodextrin, kinetic from dmso stock, Diethylene glycol monoethyl ether 80% solvent, 20% pH6.8 buffered water
  solubility: 21800 µg/mL (≈ 69 mM)
[5]; di(ethylene glycol) diethyl ether, neat solvent, organic solvent or mixture, Di (ethyleneglycol) diethyl ether 100% solvent, 0% water, 25° C. (neat, from Example 11)
  solubility: 19000 µg/mL (≈ 60.2 mM)
[5]; di(ethylene glycol) methyl ether, neat solvent, organic solvent or mixture, Di (ethylene glycol) methyl ether 100% solvent, 0% water, 25° C. (neat, from Example 11)
  solubility: 56400 µg/mL (≈ 179 mM)
[5]; diethylene glycol monoethyl ether (DEGEE), neat solvent, organic solvent or mixture, Diethylene glycol monoethyl ether 100% solvent, 0% water, 25° C. (neat, from Example 11)
  solubility: 41800 µg/mL (≈ 132 mM)
[6]; PEG 200 (neat solvent), organic solvent or mixture
  solubility: 30.3 mg/mL (≈ 96 mM)
[6]; PEG 300 (neat solvent), organic solvent or mixture
  solubility: 37 mg/mL (≈ 117 mM)
[6]; Transcutol (neat solvent), organic solvent or mixture
  solubility: 38.7 mg/mL (≈ 123 mM)
[6]; glycofurol (neat solvent), organic solvent or mixture
  solubility: 67.3 mg/mL (≈ 213 mM)
[6]; propylene glycol (neat solvent), organic solvent or mixture
  solubility: 3.4 mg/mL (≈ 10.8 mM)
[6]; triacetin (neat solvent), organic solvent or mixture
  solubility: 5.8 mg/mL (≈ 18.4 mM)
[6]; water
  solubility: < 0.1 mg/mL
[7]; 25 °C
  solubility: 38.9 mg/mL (≈ 123 mM)
[7]; -16 °C
  solubility: 35.3 mg/mL (≈ 112 mM)
[8]
  amount excreted unchanged in the urine: less than 0.5 % of a dose
  excreted in the feces: 9-27 % of a dose
  half-life: 18 to 50 h
  roughly equal dose (potency equivalence): ~0.25 mg
[9]; pH 6, aqueous buffer, buffer pH 6, 37° C.
  solubility at 2 h: 13.7 µg/mL (≈ 0.0433 mM)
[9]; pH 6, aqueous with cosolvent or surfactant or cyclodextrin, 20% ethanol in buffer pH6, 37° C.
  solubility at 2 h: 82.3 µg/mL (≈ 0.261 mM)
[9]; pH 6, aqueous with cosolvent or surfactant or cyclodextrin, receiver solution, 10% ethanol in buffer pH 6, 37° C.
  solubility at 2 h: 29.3 µg/mL (≈ 0.0929 mM)
[10]; 1,2-dimethyxoethane, 5 °C
  solubility: 35.7 mg/mL (≈ 113 mM)
[10]; 1,2-dimethyxoethane, 25 °C
  solubility: 39.3 mg/mL (≈ 124 mM)
[10]; 1,2-dimethyxoethane, -15 °C
  solubility: 35.2 mg/mL (≈ 111 mM)
[10]; di(ethylene glycol) diethyl ether, 5 °C
  solubility: 18.5 mg/mL (≈ 58.6 mM)
[10]; di(ethylene glycol) diethyl ether, 25 °C
  solubility: 19 mg/mL (≈ 60.2 mM)
[10]; di(ethylene glycol) diethyl ether, -15 °C
  solubility: 19.5 mg/mL (≈ 61.8 mM)
[10]; di(ethylene glycol) methyl ether, 5 °C
  solubility: 53.9 mg/mL (≈ 171 mM)
[10]; di(ethylene glycol) methyl ether, 25 °C
  solubility: 56.4 mg/mL (≈ 179 mM)
[10]; di(ethylene glycol) methyl ether, -15 °C
  solubility: 58.1 mg/mL (≈ 184 mM)
[10]; diethylene glycol monoethyl ether (DEGEE), 25 °C
  solubility: 41.8 mg/mL (≈ 132 mM)
[10]; diethylene glycol monoethyl ether, 5 °C
  solubility: 37.7 mg/mL (≈ 119 mM)
[10]; diethylene glycol monoethyl ether, -15 °C
  solubility: 43.3 mg/mL (≈ 137 mM)
